Experimental data reported in PubChem BioAssay AID180 (DTP/NCI, 2004).
Values joined by “and” are separate entries in the source; they are usually repeats but may differ in a detail not shown here. Equal entries are not always repeated.

Test system: BDF1 mice, Adenocarcinoma 755 s.c., tumor weight T/C
Assay: NCI In Vivo Anticancer Drug Screen. Data for tumor model Adenocarcinoma 755 (subcutaneous) in B6D2F1 (BDF1) mice
Conditions: endpoint: mean tumor weight, higher = larger tumour
In short: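 Transplantable tumor implanted; mice dosed with compound or vehicle; survival or tumor size recorded; ratio of treated to vehicle control reported.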

## CCCn1cnc2c(SCc3ccccc3)nc(N)nc21
dose: 7.81 mg/kg/injection, schedule: Q01DX011 (ip), vehicle: methylcellulose (MC)
  T/C: 43 % of control
dose: 15.62 mg/kg/injection, schedule: Q01DX011 (ip), vehicle: methylcellulose (MC)
  T/C: 9 % of control
dose: 31.25 mg/kg/injection, schedule: Q01DX011 (ip), vehicle: methylcellulose (MC)
  T/C: 37 % of control
dose: 62.5 mg/kg/injection, schedule: Q01DX011 (ip), vehicle: methylcellulose (MC)
  T/C: 1 % of control

## CCn1cnc2ncnc(SCc3ccccc3)c21
dose: 16.0 mg/kg/injection, schedule: Q01DX011 (ip), vehicle: carboxymethylcellulose (CMC)
  T/C: 107 % of control
dose: 31.0 mg/kg/injection, schedule: Q01DX011 (ip), vehicle: carboxymethylcellulose (CMC)
  T/C: 89 % of control
dose: 62.0 mg/kg/injection, schedule: Q01DX011 (ip), vehicle: carboxymethylcellulose (CMC)
  T/C: 46 % of control

## CCOC(C)C(/C=N/NC(N)=S)=NNC(N)=S (stereo not drawn)
dose: 15.0 mg/kg/injection, schedule: Q01DX011 (ip), vehicle: saline
  T/C: 49 % of control
dose: 30.0 mg/kg/injection, schedule: Q01DX011 (ip), vehicle: saline
  T/C: 109 % of control
dose: 60.0 mg/kg/injection, schedule: Q01DX011 (ip), vehicle: saline
  T/C: 117 % of control
dose: 120.0 mg/kg/injection, schedule: Q01DX011 (ip), vehicle: saline
  T/C: 71 % of control

## CC(=O)OCC1OC(n2cnc3c(=O)[nH]cnc32)CC1OC(C)=O (stereo not drawn)
dose: 60.0 mg/kg/injection, schedule: Q01DX011 (ip), vehicle: carboxymethylcellulose (CMC)
  T/C: 75 % of control and 78 % of control
dose: 120.0 mg/kg/injection, schedule: Q01DX011 (ip), vehicle: carboxymethylcellulose (CMC)
  T/C: 86 % of control

## Nc1nc(N)c(N=O)c(Nc2ccc(Br)cc2)n1
dose: 5.0 mg/kg/injection, schedule: Q01DX011 (ip), vehicle: methylcellulose (MC)
  T/C: 71 % of control
dose: 10.0 mg/kg/injection, schedule: Q01DX011 (ip), vehicle: methylcellulose (MC)
  T/C: 32 % of control
dose: 20.0 mg/kg/injection, schedule: Q01DX011 (ip), vehicle: methylcellulose (MC)
  T/C: 20 % of control and 31 % of control
dose: 22.0 mg/kg/injection, schedule: Q01DX011 (ip), vehicle: methylcellulose (MC)
  T/C: 44 % of control
dose: 40.0 mg/kg/injection, schedule: Q01DX011 (ip), vehicle: methylcellulose (MC)
  T/C: 16 % of control
dose: 44.0 mg/kg/injection, schedule: Q01DX011 (ip), vehicle: methylcellulose (MC)
  T/C: 21 % of control
dose: 88.0 mg/kg/injection, schedule: Q01DX011 (ip), vehicle: methylcellulose (MC)
  T/C: 20 % of control and 30 % of control

## Cc1cccc(-c2c3ccccc3cc3c2ccc2ccccc23)c1
dose: 30.0 mg/kg/injection, schedule: Q01DX011 (ip), vehicle: methylcellulose (MC)
  T/C: 96 % of control
dose: 60.0 mg/kg/injection, schedule: Q01DX011 (ip), vehicle: methylcellulose (MC)
  T/C: 76 % of control
dose: 120.0 mg/kg/injection, schedule: Q01DX011 (ip), vehicle: methylcellulose (MC)
  T/C: 79 % of control
dose: 240.0 mg/kg/injection, schedule: Q01DX011 (ip), vehicle: methylcellulose (MC)
  T/C: 119 % of control

## CN(C)c1ncnc2c1ncn2C1CCCCO1 (stereo not drawn)
dose: 11.0 mg/kg/injection, schedule: Q01DX011 (ip), vehicle: methylcellulose (MC)
  T/C: 70 % of control
dose: 22.5 mg/kg/injection, schedule: Q01DX011 (ip), vehicle: methylcellulose (MC)
  T/C: 47 % of control
dose: 45.0 mg/kg/injection, schedule: Q01DX011 (ip), vehicle: methylcellulose (MC)
  T/C: 47 % of control
dose: 90.0 mg/kg/injection, schedule: Q01DX011 (ip), vehicle: methylcellulose (MC)
  T/C: 20 % of control

## C[C@]12CCCC[C@@H]1CC[C@@H]1[C@@H]2[C@@H](O)C[C@]2(C)[C@@H](N)CC[C@@H]12
dose: 22.0 mg/kg/injection, schedule: Q01DX011 (sc), vehicle: steriod suspending solution
  T/C: 106 % of control
dose: 44.0 mg/kg/injection, schedule: Q01DX011 (sc), vehicle: steriod suspending solution
  T/C: 74 % of control

## Nc1nc(=S)cc(Nc2ccc(Cl)c(Cl)c2)[nH]1
dose: 15.0 mg/kg/injection, schedule: Q01DX011 (ip), vehicle: methylcellulose (MC)
  T/C: 114 % of control
dose: 31.0 mg/kg/injection, schedule: Q01DX011 (ip), vehicle: methylcellulose (MC)
  T/C: 92 % of control

## CCOC(=O)/C(C)=N\Nc1cc(Cl)nc(N)n1
dose: 112.0 mg/kg/injection, schedule: Q01DX011 (ip), vehicle: methylcellulose (MC)
  T/C: 200 % of control

## CCSCCC(N)C(=O)O (stereo not drawn)
dose: 13.13 mg/kg/injection, schedule: Q01DX011 (ip), vehicle: carboxymethylcellulose (CMC)
  T/C: 171 % of control
dose: 18.0 mg/kg/injection, schedule: Q01DX011 (ip), vehicle: methylcellulose (MC)
  T/C: 86 % of control
dose: 20.5 mg/kg/injection, schedule: Q01DX011 (ip), vehicle: carboxymethylcellulose (CMC)
  T/C: 99 % of control
dose: 26.25 mg/kg/injection, schedule: Q01DX011 (ip), vehicle: carboxymethylcellulose (CMC)
  T/C: 118 % of control
dose: 37.5 mg/kg/injection, schedule: Q01DX011 (ip), vehicle: methylcellulose (MC)
  T/C: 107 % of control
dose: 52.5 mg/kg/injection, schedule: Q01DX011 (ip), vehicle: carboxymethylcellulose (CMC)
  T/C: 121 % of control
dose: 56.5 mg/kg/injection, schedule: Q01DX011 (ip), vehicle: carboxymethylcellulose (CMC)
  T/C: 46 % of control
dose: 82.0 mg/kg/injection, schedule: Q01DX011 (ip), vehicle: carboxymethylcellulose (CMC)
  T/C: 65 % of control
dose: 90.4 mg/kg/injection, schedule: Q01DX011 (ip), vehicle: other
  T/C: 156 % of control
dose: 105.0 mg/kg/injection, schedule: Q01DX011 (ip), vehicle: carboxymethylcellulose (CMC)
  T/C: 93 % of control
dose: 113.0 mg/kg/injection, schedule: Q01DX011 (ip), vehicle: carboxymethylcellulose (CMC)
  T/C: 38 % of control
dose: 113.0 mg/kg/injection, schedule: Q01DX011 (ip), vehicle: other
  T/C: 109 % of control
dose: 150.66 mg/kg/injection, schedule: Q01DX011 (ip), vehicle: other
  T/C: 37 % of control
dose: 226.0 mg/kg/injection, schedule: Q01DX011 (ip), vehicle: carboxymethylcellulose (CMC)
  T/C: 84 % of control
dose: 226.0 mg/kg/injection, schedule: Q01DX011 (ip), vehicle: other
  T/C: 49 % of control

## N[C@@H](Cc1ccc(N(CCCl)CCCl)cc1)C(=O)O
dose: 0.31 mg/kg/injection, schedule: Q01DX011 (ip), vehicle: carboxymethylcellulose (CMC)
  T/C: 66 % of control
dose: 0.62 mg/kg/injection, schedule: Q01DX011 (ip), vehicle: carboxymethylcellulose (CMC)
  T/C: 101 % of control
dose: 1.25 mg/kg/injection, schedule: Q01DX011 (ip), vehicle: carboxymethylcellulose (CMC)
  T/C: 59 % of control
dose: 2.5 mg/kg/injection, schedule: Q01DX011 (ip), vehicle: carboxymethylcellulose (CMC)
  T/C: 29 % of control

## O=C1C=CC(=O)O1 (tested in a mixture with another compound)
dose: 11.0 mg/kg/injection, schedule: Q01DX011 (ip), vehicle: carboxymethylcellulose (CMC)
  T/C: 39 % of control and 57 % of control
dose: 11.0 mg/kg/injection, schedule: Q01DX011 (ip), vehicle: saline
  T/C: 56 % of control
dose: 22.0 mg/kg/injection, schedule: Q01DX011 (ip), vehicle: carboxymethylcellulose (CMC)
  T/C: 18 % of control and 38 % of control
dose: 22.0 mg/kg/injection, schedule: Q01DX011 (ip), vehicle: saline
  T/C: 31 % of control
dose: 90.0 mg/kg/injection, schedule: Q01DX011 (ip), vehicle: carboxymethylcellulose (CMC)
  T/C: 11 % of control and 32 % of control

## Cn1c(=O)c2c(nc(/N=C/c3ccccc3)n2C)n(C)c1=O
dose: 25.0 mg/kg/injection, schedule: Q01DX011 (ip), vehicle: methylcellulose (MC)
  T/C: 51 % of control
